Measured values reported in US20050004167A1, “Branched chain amino acid-dependent aminotransferase inhibitors and their use in the treatment of neurodegenerative diseases” (WARNER-LAMBERT COMPANY LLC, priority 2001, published 2005).
Several values for one entry are separate records, joined by “and”; a condition that tells them apart may be missing. Equal entries are not always repeated.

How the values were obtained:
rat BCAT cytosolic form = molecular target: T1, rat BCAT cytosolic form (Rattus norvegicus, UniProt P54690); assay: In vitro coupled enzyme assay (glutamate dehydrogenase, NADH formation), rat BCATc; format: biochemical; details: recombinant rat BCATc, 37° C., 25 mM phosphate buffer pH 7.8; several values in a cell = repeat determinations; read-out: RrBCATc
T1 construct: made in house; host or cells: E. coli BL21(DE3)
T1 sequence (P54690 1-411): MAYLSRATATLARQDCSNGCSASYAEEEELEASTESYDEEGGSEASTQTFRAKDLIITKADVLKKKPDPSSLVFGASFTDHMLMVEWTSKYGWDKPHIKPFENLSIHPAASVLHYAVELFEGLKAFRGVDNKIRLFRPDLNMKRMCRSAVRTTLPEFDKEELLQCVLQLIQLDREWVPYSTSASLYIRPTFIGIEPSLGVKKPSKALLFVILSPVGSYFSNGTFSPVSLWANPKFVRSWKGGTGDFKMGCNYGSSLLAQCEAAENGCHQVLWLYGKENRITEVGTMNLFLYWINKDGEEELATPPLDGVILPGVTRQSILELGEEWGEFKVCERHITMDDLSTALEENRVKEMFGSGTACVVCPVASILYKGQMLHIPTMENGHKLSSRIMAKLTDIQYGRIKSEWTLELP
Outline: (§1)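 At 37 °C in 25 mM phosphate pH 7.8 with 2 mM DTT, 1.25 μg His-tag-purified E. coli-expressed BCAT transaminated 750 μM L-leucine with 500 μM α-ketoglutarate and 10 μM PLP. Glutamate was coupled via glutamate dehydrogenase (1 mM NAD+, 4 mM ADP) to NADH formation at 340 nm. Compounds were added in DMSO up to 5% v/v.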

[1] = molecular target: T2, human Branched Chain Amino Acid Aminotransferase cytosolic form (hBCATc) (Homo sapiens, UniProt P54687); assay: In vitro coupled enzyme assay (glutamate dehydrogenase, NADH formation), human BCATc; format: biochemical; details: recombinant human BCATc, 37° C., 25 mM phosphate buffer pH 7.8; several values in a cell = repeat determinations; read-out: RhBCATc
T2 construct: made in house; host or cells: E. coli BL21(DE3)
T2 sequence (P54687 1-386): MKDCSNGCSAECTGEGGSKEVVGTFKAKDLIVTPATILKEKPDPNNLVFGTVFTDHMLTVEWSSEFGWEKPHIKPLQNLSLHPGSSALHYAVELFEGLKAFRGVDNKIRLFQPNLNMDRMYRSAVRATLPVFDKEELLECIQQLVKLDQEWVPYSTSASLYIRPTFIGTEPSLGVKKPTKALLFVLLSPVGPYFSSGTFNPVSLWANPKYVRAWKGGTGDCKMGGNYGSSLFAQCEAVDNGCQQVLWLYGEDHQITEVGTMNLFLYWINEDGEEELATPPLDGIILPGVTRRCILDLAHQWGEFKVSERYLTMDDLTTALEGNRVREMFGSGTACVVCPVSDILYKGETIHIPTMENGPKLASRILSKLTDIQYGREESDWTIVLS
Outline: as §1

Row | SMILES | IC50 (rat BCAT cytosolic form) | melting point | IC50 [1]
1 | O=C(NNS(=O)(=O)c1ccccc1C(F)(F)F)c1cc2cc(Cl)cc(Cl)c2o1 [Example 70] | 430 nM | 245.6 to 247.6 °C | 11.6 µM
2 | Cc1ccccc1S(=O)(=O)NNC(=O)c1cc2cc(Cl)cc(Cl)c2o1 [Example 71, 2-Benzofurancarboxylic acid, 5,7-dichloro 2-[(2-methylphenyl)sulfonyl]hydrazide] | 880 nM | 212 to 214 °C | 6.57 µM
3 | Cc1cccc(S(=O)(=O)NNC(=O)c2cc3cc(Cl)cc(Cl)c3o2)c1 [Example 72, 2-Benzofurancarboxylic acid, 5,7-dichloro 2-[(3-methylphenyl)sulfonyl]-hydrazide] | 1860 nM | 230.4 to 231.1 °C | > 10 µM and 5.35 µM
4 | O=C(NNS(=O)(=O)c1cccc(Br)c1)c1cc2cc(Cl)cc(Cl)c2o1 [Example 74, 2-Benzofurancarboxylic acid, 5,7-dichloro 2-[(3-bromophenyl)sulfonyl]-hydrazide] | 3710 nM | 248.5 to 248.8 °C | 64.5 µM
5 | O=C(NNS(=O)(=O)c1cccc(Cl)c1)c1cc2cc(Cl)cc(Cl)c2o1 [Example 75, 2-Benzofurancarboxylic acid, 5,7-dichloro 2-[(3-chlorophenyl)sulfonyl]-hydrazide] | 880 nM | 245.6 to 245.7 °C | > 10 µM and 5.4 µM
6 | O=C(NNS(=O)(=O)c1ccccc1OC(F)(F)F)c1cc2cc(Cl)cc(Cl)c2o1 [Example 76, 2-Benzofurancarboxylic acid, 5,7-dichloro 2-[[2-(trifluoromethoxy)phenyl]-sulfonyl]hydrazide] | 1510 nM | 234.5 to 236.1 °C | 11.2 µM
7 | O=C(NNS(=O)(=O)c1ccccc1C(F)(F)F)c1cnc2ccccc2c1 [Example 135, 3-Quinolinecarboxylic acid, 2-[(2-trifluoromethylphenyl)sulfonyl]hydrazide] | 2800 nM | 203.6 to 204.4 °C | 13 µM
8 | O=C(NNS(=O)(=O)c1ccccc1OC(F)(F)F)c1cnc2ccccc2c1 [Example 137, 3-Quinolinecarboxylic acid, 2-[(2-trifluoromethoxyphenyl)sulfonyl]hydrazide] | 14000 nM | 175.1 to 175.9 °C | 41 µM
9 | O=C(NNS(=O)(=O)c1ccccc1)c1ccc2c(c1)CCO2 [Example 149, 2,3-Dihydro-benzofuran-5-carboxylic acid 2-(phenylsulfonyl)hydrazide] | 3300 nM | 181 to 183 °C | 17.9 µM
